Laboratory results reported in US20260327264A1, “PEPTIDE INHIBITORS OF INTERLEUKIN-23 RECEPTOR” (Zealand Pharma A/S, priority 2023, published 2026).
*1 amine or outer side, *2 acyl side, *3 side chain or, on linkers, in order; H or OH if unused. Where a SMILES comes first, the peptide text is derived from it. Bridges are numbered along the chain shown (N, C = ends). [ ]: non-standard residue; d: D form. The star is where a group is joined. 2Nal = N[C@@H](Cc1ccc2ccccc2c1)C(=O)O; AEF = NCCOc1ccc(C[C@H](N)C(=O)O)cc1; X1 = O=C(Cc1ccc(CN[*:1])cc1)[*:2]; 3Pal = N[C@@H](Cc1cccnc1)C(=O)O; αMeL = CC(C)C[C@](C)(N)C(=O)O; CH2COCH2 = O=C(C[*:1])C[*:2]; Pyrrolidide = C1CCN(*)C1; Dab = NCC[C@H](N)C(=O)O

Experiments:
[1] = system: IL-23 mediated STAT3 signalling (DB cells); assay: Functional inhibition of IL-23 mediated STAT3 signalling (phospho-STAT3 Tyr705) in DB cells; type: cell-based, human; settings: for IC50: Table 3-2, EC80 of hIL-23, read-out: hIL-23 (pSTAT3) antagonist IC50; for hIL-23 (pSTAT3) antagonist % inhibition: Table 3-2, maximal inhibitory response, EC80 of hIL-23
Description: Upon binding of IL-23, the IL-23R forms a heterodimer signalling complex together with IL-12R β1, which through the JAK2/STAT3 pathway promotes phosphorylation of STAT3 to form phospho-STAT3.
For compounds tested in this assay, the response was normalized relative to control values to calculate the IC50 and maximal inhibitory response from a concentration response curve of the compound in presence of a fixed concentration of human IL-23.
The assay procedure was as follows. […] Following preincubation of the DB cells with inhibitor for 15 min in a cell incubator (37° C., 5% CO2), 20 μL of the prepared 3× the EC80 of hIL-23 solution was added to each well and incubated for 90 min in a cell incubator (37° C., 5% CO2). For some wells buffer only or IL-23 only corresponding to the EC80 was added to obtain readouts needed for normalization. To terminate the assay, the plate was spun at 1000 G for 5 min to pellet cells, the supernatant removed using an 8-channel manual pipette, and then added 50 μL/well Complete Lysis Buffer from the MSD STAT3 kit (Cat #K150SVD, Mesoscale) to the cell pellet. To completely lyse cells to release phospho-STAT3 for detection, the plate was shaken for 10 min at room temperature (500 rpm) sealed with aluminium foil and placed at −80° C. for a minimum of 15 min. Detection of the phospho-STAT3 level in the cell lysate from the individual wells was determined using the MSD STAT3 kit (Cat #K150SVD, Mesoscale) and read on a Meso QuickPlex SQ 120 plate reader (Mesoscale).
For data analysis raw data counts from the Meso QuickPlex SQ 120 plate reader were normalized relative to the response by the EC80 of hIL-23 alone (no compound added) and the buffer level.

[2] = biological target: T1, human IL-23R (Homo sapiens, UniProt Q5VWK5); assay: Binding assay: displacement of fluorophore (TAMRA)-labelled reference compound from human IL-23R (BRET, Nluc-IL23R fusion protein membranes); settings: for Emax: read-out: % displacement (hIL-23R binding)
T1 construct: Nanoluc luciferase (Nluc); secretion signal encoded by the plasmid (not specified); expressed in transfected cells; crude membranes used in the assay
T1 sequence (Q5VWK5 22-629): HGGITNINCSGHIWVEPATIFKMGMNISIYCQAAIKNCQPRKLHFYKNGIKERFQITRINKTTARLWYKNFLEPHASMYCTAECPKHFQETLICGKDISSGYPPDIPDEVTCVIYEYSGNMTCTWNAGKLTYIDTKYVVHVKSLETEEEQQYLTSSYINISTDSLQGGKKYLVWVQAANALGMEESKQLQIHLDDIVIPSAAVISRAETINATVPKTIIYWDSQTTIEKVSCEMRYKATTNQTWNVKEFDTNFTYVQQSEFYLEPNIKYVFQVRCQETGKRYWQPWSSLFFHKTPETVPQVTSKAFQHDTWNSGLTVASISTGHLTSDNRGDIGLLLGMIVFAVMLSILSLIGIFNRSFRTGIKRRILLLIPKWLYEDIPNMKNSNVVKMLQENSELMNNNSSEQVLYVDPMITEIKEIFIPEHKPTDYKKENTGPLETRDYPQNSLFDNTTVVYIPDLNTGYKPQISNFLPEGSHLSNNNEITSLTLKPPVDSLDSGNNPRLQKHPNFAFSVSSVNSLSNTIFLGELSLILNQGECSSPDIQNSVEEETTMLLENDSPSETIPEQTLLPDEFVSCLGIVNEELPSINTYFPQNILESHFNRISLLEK
Description: The assay principle relies on Bioluminescence Resonance Energy Transfer (BRET) between a fluorophore-labelled reference compound binding to the IL-23R part of a fusion protein consisting of the IL-23R fused to a Nanoluc luciferase enzyme (Nanoluc). The Nanoluc is placed in the N-terminus in close proximity to the binding domain of the ligand. Upon close proximity between the fluorophore of the fluorophore-labelled compound and the Nanoluc of the fusion protein, bioluminescence energy generated from conversion of a Nanoluc substrate, is transferred to the fluorophore resulting in an increase in BRET. In presence of an unlabelled compound, the unlabelled compound displaces the fluorophore-labelled peptide from its binding site resulting in a decrease in BRET. The concentration for which half of the fluorophore-labelled peptide is displaced by the unlabelled compound depends on the affinity of the compound for the IL-23R, and is termed the IC50 concentration.
The plasmid also contained a gene to confer resistance for the antibiotic hygromycin. A cell line stably expressing the Nluc-IL23R fusion protein was generated by transfection of HEK293 cells with the expression plasmid and selected with hygromycin for 3 weeks in Growth medium consisting of DMEM w/Glutamax-I containing, 10% V/V FBS, 1% V/V P/S, 1 mM Sodium Pyruvate, and 1× NEAA, and 0.3 mg/mL hygromycin. The remaining cells were propagated and considered a stable expressing Nluc-IL23R fusion protein pool clone.
Cells expressing the Nluc-IL23R fusion protein were expanded in Growth medium and membranes prepared by homogenization of a cell pellet from 18 T175 flasks (4° C. in subsequent steps). The cell pellet was lysed Tris 10 mM, 7.5, 1 mM EDTA and protease inhibitors (Complete, Roche) and homogenized using a 15 mL glass-dounce by 50 strokes. The homogenate was spun at spin @1500 rpm for 10 min, the supernatant transferred to SV-34 tubes and spun at 40000 g for 20 min at 4° C. to pellet the crude membranes. The supernatant was then removed, the pellet resuspended in 5 mL buffer containing 50 mM HEPES pH 7.4, 5 mM EGTA, and 5 mM MgCl2, and homogenized. Aliquots of the resuspended and homogenized membranes containing the Nluc-IL23R fusion protein were stored at −80° C. until use.
The plate was sealed with light impermeable plate seals, and incubated on an orbital shaker 400 rpm for 2 hours at room temperature. To determine the BRET ratio, the plate seal was removed and 25 μL of the Nanoluc substrate (Promega N1572) diluted 1:500 was added to each well and incubated for 1-2 minutes on an orbital shaker at 400 rpm. […] The BRET ratio was calculated as the fluorescence from the TAMRA/nanoluc bioluminescence.
Compound potency (IC50) and maximal displacement (% displacement) were estimated by computer-aided curve fitting using a 4-parameter logistic (4PL) non-linear model. The IC50 and maximal for each compound was determined by computer-aided curve fitting using a 4-parameter logistic (4PL) non-linear model.

SMILES	IC50 [1] [nM]	Emax [2] [%]	IC50 [2] [nM]	hIL-23 (pSTAT3) antagonist % inhibition [1] [%]
CNC(=O)[C@H](Cc1cccnc1)NC(=O)[C@H](CCN)NC(=O)[C@@H]1CCC(=O)NCc2ccc(cc2)CC(=O)N[C@@H](C)C(=O)N[C@H]2CCC(=O)NCC[C@H](NC(=O)[C@H](CCC(N)=O)NC(=O)[C@H](Cc3c[nH]c4ccccc34)NC2=O)C(=O)N[C@@H](Cc2ccc(N3CCOCC3)cc2)C(=O)N[C@@H](Cc2ccc3ccccc3c2)C(=O)NC(C)(C)C(=O)N1 [Compound 51, [4-aminomethyl-phenylacetyl](1c)*AE(2c)WQ[Dab](2c)[F(4-morpholine)][2Nal][Aib]E(1c)[Dab][3-(3-Pyridyl)-alanyl]-[NHMe]]	0.38	105	0.073	96
CC(C)C[C@]1(C)NC(=O)[C@H](Cc2ccc3ccccc3c2)NC(=O)[C@H](Cc2ccc(OCCN)cc2)NC(=O)[C@@H]2CCNC(=O)CC[C@H](NC(=O)[C@H](CO)NC(=O)Cc3ccc(cc3)CNC(=O)CC[C@@H](C(=O)NCC[C@H](N)C(=O)N[C@@](C)(Cc3cccnc3)C(N)=O)NC1=O)C(=O)N[C@@H](Cc1c[nH]c3ccccc13)C(=O)N[C@@H](CCC(N)=O)C(=O)N2 [Compound 15, [4-Aminomethyl-phenylacetyl](1c)*SE(2c)WQ[Dab](2c)[Y(2-aminoethoxy)][2-Nal][2-Me-Leu]E(1c)[Iso-Dab][2-Me-3-(3-Pyridyl)-Ala]-[NH2]]	12	96		97
CC(C)C[C@]1(C)NC(=O)[C@H](Cc2ccc3ccccc3c2)NC(=O)[C@H](Cc2ccc(OCCN)cc2)NC(=O)[C@@H]2CCNC(=O)CC[C@H](NC(=O)[C@H](CO)NC(=O)Cc3ccc(cc3)CNC(=O)CC[C@@H](C(=O)N[C@@H](CCN)C(N)=O)NC1=O)C(=O)N[C@@H](Cc1c[nH]c3ccccc13)C(=O)N[C@@H](CCC(=O)N1CCCC1)C(=O)N2 [Ref 146, [4-Aminomethyl-phenylacetyl](1c)*SE(2c)W[Q(pyrrolidin)][Dab](2c)[Y(2-aminoethoxy)][2-Nal][2-Me-Leu]E(1c)[Dab]-[NH2], reference compound] ([X1]SEWE(Pyrrolidide)[Dab][AEF][2Nal][αMeL]E[Dab]-NH2; lactam 3-6, N-10)	42	105	1.2	98
CNC(=O)[C@H](Cc1cncnc1)NC(=O)[C@H](CCN)NC(=O)[C@@H]1CCC(=O)NCc2ccc(cc2)CC(=O)N[C@@H](CO)C(=O)N[C@H]2CCC(=O)NCC[C@H](NC(=O)[C@H](CCC(N)=O)NC(=O)[C@H](Cc3c[nH]c4ccccc34)NC2=O)C(=O)N[C@@H](Cc2ccc(OCCN)cc2)C(=O)N[C@@H](Cc2ccc3ccccc3c2)C(=O)N[C@@](C)(CC(C)C)C(=O)N1 [Compound 19, [4-Aminomethyl-phenylacetyl](1c)*SE(2c)WQ[Dab](2c)[Y(2-aminoethoxy)][2-Nal][2-Me-Leu]E(1c)[Dab][3-(3,5-Pyrimidyl)-Ala]-[NHMe]]	0.16	103		100
CC(C)C[C@]1(C)NC(=O)[C@H](Cc2c[nH]c3ccccc23)NC(=O)[C@H](Cc2c[nH]c3ccccc23)NC(=O)[C@@H]2CSCC(=O)CSC[C@H](NC(=O)[C@H]([C@@H](C)O)NC(=O)[C@@H](NC(=O)CN)CSCC(=O)CSC[C@@H](C(=O)N[C@@H](CO)C(N)=O)NC1=O)C(=O)N[C@@H](Cc1c[nH]c3ccccc13)C(=O)N[C@@H](CCC(=O)O)C(=O)N2 (single isomer, unassigned) [I5 (isomer 3), H-GC(1a)TC(2a)WEC(2a)WW[2-Me-Leu]C(1a)S-[NH2], reference compound]		102		91
CNC(=O)[C@H](Cc1cccnc1)NC(=O)[C@H](CCN)NC(=O)[C@@H]1CCC(=O)NCc2ccc(cc2)CC(=O)N[C@@H](CO)C(=O)N[C@H]2CCC(=O)NCC[C@H](NC(=O)[C@H](C)NC(=O)[C@H](Cc3c[nH]c4ccccc34)NC2=O)C(=O)N[C@@H](Cc2ccc(OCCN)cc2)C(=O)N[C@@H](Cc2ccc3ccccc3c2)C(=O)N[C@@](C)(CC(C)C)C(=O)N1 [Compound 22, [4-Aminomethyl-phenylacetyl](1c)*SE(2c)WA[Dab](2c)[Y(2-aminoethoxy)][2-Nal][2-Me-Leu]E(1c)[Dab][3-(3-Pyridyl)-Ala]-[NHMe]] ([X1]SEWA[Dab][AEF][2Nal][αMeL]E[Dab][3Pal]-NHMe; lactam 3-6, N-10)			0.035	101

Continued, in another order:

IC50 [1] [nM]	Emax [2] [%]	IC50 [2] [nM]	SMILES	hIL-23 (pSTAT3) antagonist % inhibition [1] [%]
21	101		CC(C)C[C@]1(C)NC(=O)[C@H](Cc2ccc3ccccc3c2)NC(=O)[C@H](Cc2ccc(OCCN)cc2)NC(=O)[C@@H]2CCNC(=O)CC[C@H](NC(=O)[C@H](CO)NC(=O)Cc3ccc(cc3)CNC(=O)CC[C@@H](C(=O)N[C@@H](CCN)C(N)=O)NC1=O)C(=O)N[C@@H](Cc1c[nH]c3ccccc13)C(=O)N[C@@H](CCC(N)=O)C(=O)N2 [Ref 125, [4-Aminomethyl-phenylacetyl](1c)*SE(2c)WQ[Dab](2c)[Y(2-aminoethoxy)][2-Nal][2-Me-Leu]E(1c)[Dab]-[NH2], reference compound]	98
7.8	100		CC(C)C[C@]1(C)NC(=O)[C@H](Cc2ccc3ccccc3c2)NC(=O)[C@H](Cc2ccc(OCCN)cc2)NC(=O)[C@@H]2CSCC(=O)CSC[C@H](NC(=O)[C@H](CO)NC(=O)Cc3ccc(cc3)CNC(=O)CC[C@@H](C(=O)N[C@@H](CCCNC(=N)N)C(N)=O)NC1=O)C(=O)N[C@@H](Cc1c[nH]c3ccccc13)C(=O)N[C@@H](CCC(N)=O)C(=O)N2 [Ref 52, [4-Aminomethyl-phenylacetyl](1c)*SC(2a)WQC(2a)[Y(2-aminoethoxy)][2-Nal][2-Me-Leu]E(1c)R-[NH2], reference compound] ([X1]SCWQC[AEF][2Nal][αMeL]ER-NH2; linker 3-6 via CH2COCH2; lactam N-10)	103
11	103		CC(C)C[C@]1(C)NC(=O)[C@H](Cc2ccc3ccccc3c2)NC(=O)[C@H](Cc2ccc(OCCN)cc2)NC(=O)[C@@H]2CSCC(=O)CSC[C@H](NC(=O)[C@H](CO)NC(=O)Cc3ccc(cc3)CNC(=O)CC[C@@H](C(=O)N[C@@H](CCN)C(N)=O)NC1=O)C(=O)N[C@@H](Cc1c[nH]c3ccccc13)C(=O)N[C@@H](CCC(N)=O)C(=O)N2 [Ref 82, [4-Aminomethyl-phenylacetyl](1c)*SC(2a)WQC(2a)[Y(2-aminoethoxy)][2-Nal][2-Me-Leu]E(1c)[Dab]-[NH2], reference compound] ([X1]SCWQC[AEF][2Nal][αMeL]E[Dab]-NH2; linker 3-6 via CH2COCH2; lactam N-10)	97
850	100		CC(C)C[C@@H]1NC(=O)[C@H](Cc2c[nH]c3ccccc23)NC(=O)[C@H](Cc2c[nH]c3ccccc23)NC(=O)[C@@H]2CSCC(=O)CSC[C@H](NC(=O)[C@H](CO)NC(=O)[C@@H](NC(=O)[C@@H](N)CC(=O)O)CCC(=O)NCCCC[C@@H](C(=O)N[C@@H](CCCNC(=N)N)C(N)=O)NC1=O)C(=O)N[C@@H](Cc1c[nH]c3ccccc13)C(=O)N[C@@H](CCC(N)=O)C(=O)N2 [Ref 4, H-DE(1c)SC(2a)WQC(2a)WWLK(1c)R-[NH2], reference compound] (HELM PEPTIDE1{D.E.S.C.W.Q.C.W.W.L.K.R.[am]}|CHEM1{[O=C(C[*:1])C[*:2]]}$PEPTIDE1,PEPTIDE1,2:R3-11:R3|PEPTIDE1,CHEM1,4:R3-1:R1|PEPTIDE1,CHEM1,7:R3-1:R2$$$V2.0)	87
